{"source": "paper PMC9229165", "about": "“In Vitro Anticancer Activity Screening of Novel Fused Thiophene Derivatives as VEGFR-2/AKT Dual Inhibitors and Apoptosis Inducers” (Pharmaceuticals, 2022)", "key": {"VEGFR-2 [1]": {"molecular_target": "T1, VEGFR-2 (Homo sapiens, UniProt P35968)", "T1 sequence (P35968 20-1356)": "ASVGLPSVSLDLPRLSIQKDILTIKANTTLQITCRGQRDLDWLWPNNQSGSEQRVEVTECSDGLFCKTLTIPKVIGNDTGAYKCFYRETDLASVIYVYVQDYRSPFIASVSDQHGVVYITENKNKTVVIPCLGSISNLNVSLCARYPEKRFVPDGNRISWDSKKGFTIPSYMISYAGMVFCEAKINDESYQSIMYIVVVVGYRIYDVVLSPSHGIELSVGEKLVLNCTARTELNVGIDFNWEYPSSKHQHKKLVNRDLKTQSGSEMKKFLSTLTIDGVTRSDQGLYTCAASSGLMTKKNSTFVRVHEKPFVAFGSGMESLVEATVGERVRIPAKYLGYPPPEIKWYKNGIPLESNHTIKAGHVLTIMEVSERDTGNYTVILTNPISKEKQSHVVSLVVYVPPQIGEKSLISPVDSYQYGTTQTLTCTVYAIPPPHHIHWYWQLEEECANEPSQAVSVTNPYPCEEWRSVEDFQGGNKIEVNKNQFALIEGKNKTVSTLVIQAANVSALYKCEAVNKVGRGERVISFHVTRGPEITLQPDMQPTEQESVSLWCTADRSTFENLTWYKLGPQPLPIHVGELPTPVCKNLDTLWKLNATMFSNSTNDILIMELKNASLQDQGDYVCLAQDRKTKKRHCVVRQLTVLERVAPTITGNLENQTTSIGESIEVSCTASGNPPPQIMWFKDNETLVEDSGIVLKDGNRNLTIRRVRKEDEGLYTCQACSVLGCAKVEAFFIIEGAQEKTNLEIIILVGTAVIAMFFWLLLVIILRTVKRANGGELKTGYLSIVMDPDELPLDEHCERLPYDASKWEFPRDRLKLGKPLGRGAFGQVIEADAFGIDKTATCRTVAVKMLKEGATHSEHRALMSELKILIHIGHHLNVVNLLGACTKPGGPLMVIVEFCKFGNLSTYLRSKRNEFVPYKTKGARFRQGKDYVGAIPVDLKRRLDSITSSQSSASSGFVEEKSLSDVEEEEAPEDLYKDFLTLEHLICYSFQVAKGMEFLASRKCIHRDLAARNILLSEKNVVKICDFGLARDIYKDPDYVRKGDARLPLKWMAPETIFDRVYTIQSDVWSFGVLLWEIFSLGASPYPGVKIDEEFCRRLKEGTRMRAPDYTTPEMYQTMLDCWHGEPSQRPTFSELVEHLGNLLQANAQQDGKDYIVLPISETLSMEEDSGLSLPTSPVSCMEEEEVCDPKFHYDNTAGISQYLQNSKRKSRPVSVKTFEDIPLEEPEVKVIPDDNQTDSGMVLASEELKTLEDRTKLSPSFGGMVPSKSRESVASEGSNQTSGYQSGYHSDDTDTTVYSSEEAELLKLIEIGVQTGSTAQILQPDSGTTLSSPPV", "assay": "VEGFR2 (KDR) kinase assay kit", "type": "biochemical", "set-up": "purchased BPS Bioscience 40325", "conditions": "read-out: VEGFR-2 kinase inhibitory activity IC50", "text": "(§5) The outcomes were expressed as IC50 values (mean standard deviation) calculated from the dose–response curves and their linear regression equations."}, "PC-3 cells": {"tested_on": "PC-3 cells", "assay": "MTT antiproliferative assay on PC-3", "type": "cell-based", "conditions": "Homo sapiens, PC-3, MTT assay; mean ± S.D. (n = 3); read-out: Cytotoxicity in IC50, PC-3", "experimental": "(§1) The antiproliferative activity of the thiophene compounds 3a–g, 4a–c, 6a, and 7a–d was evaluated by an in vitro MTT colorimetric assay on two oncogenic cell lines: liver (HepG2) and prostate (PC-3).\n(§2) All cell lines (HepG2, PC-3, and nontumorigenic WI38) were supplied from VACSERA (Cairo, Egypt), cultured in DMEM (Invitrogen/Life Technologies, Waltham, MA, USA) at a density of 1.2–1.8 × 10,000 cells/well in a volume of 100 µL of the growth medium, and then incubated for 24 h, and an MTT assay was done as reported by."}, "AKT-1 [2]": {"molecular_target": "T2, AKT-1 (Homo sapiens, UniProt P31749)", "T2 sequence (P31749 whole entry)": "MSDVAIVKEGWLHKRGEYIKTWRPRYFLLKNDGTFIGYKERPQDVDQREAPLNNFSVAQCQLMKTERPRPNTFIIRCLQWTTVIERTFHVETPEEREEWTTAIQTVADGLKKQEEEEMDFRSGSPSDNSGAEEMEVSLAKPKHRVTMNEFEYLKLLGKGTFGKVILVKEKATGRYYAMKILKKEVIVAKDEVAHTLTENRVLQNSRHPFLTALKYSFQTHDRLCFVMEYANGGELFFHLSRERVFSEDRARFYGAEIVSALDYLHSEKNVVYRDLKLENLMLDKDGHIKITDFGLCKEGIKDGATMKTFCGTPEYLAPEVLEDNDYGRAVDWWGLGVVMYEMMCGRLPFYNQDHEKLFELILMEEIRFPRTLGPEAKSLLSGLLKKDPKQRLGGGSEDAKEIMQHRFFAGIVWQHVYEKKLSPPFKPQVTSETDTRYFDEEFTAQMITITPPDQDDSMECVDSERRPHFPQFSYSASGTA", "assay": "Akt kinase activity assay kit on cell lysate", "type": "biochemical", "conditions": "LY2780301 as reference", "text": "as §5"}, "AKT-1 [3]": {"molecular_target": "T2, AKT-1", "assay": "Phospho-AKT1 (Ser473) cell-based phosphorylation ELISA in HepG2 cells", "set-up": "endogenous in cells; host or cells: HepG2", "experimental": "To investigate the success of the design strategy developed in this work, the effect of the promising candidates 3b and 4c was assessed on AKT-1, a crucial protein, by determining their phosphorylation inhibition rate in HepG2 cells and measuring their biochemical kinase inhibitory activity.\nVEGFR-2 phosphorylation was assayed using VEGFR2 Antibody (Phospho-Tyr951) (OAEC00085, AVIVA SYSTEM BIOLOGY), while Akt-1 was assayed by Mouse/Human/Rat Phospho-AKT1 (Ser473) (Cell-Based Phosphorylation ELISA) ELISA Kit-LS-F1447 (LSBio) according to manufacturer’s instructions."}, "caspase-3": {"tested_on": "caspase-3", "assay": "Active caspase-3 ELISA in HepG2 cells", "type": "cell-based, human", "experimental": "Apoptosis is known to be carried out through three different pathways: intrinsic, extrinsic, and granzyme pathways. One of the controlling proteins in apoptosis is the cysteine protease named caspase with the chief executer caspase 3 [46, 47]. Accordingly, assessing the effect of 3b and 4c on the active caspase-3 level was done in HepG2 cells taking doxorubicin as the reference drug.\nThe colorimetric ELISA assay for active caspase-3 detection was carried out utilizing Invitrogen™ Caspase-3 (Cleaved) Human ELISA-Kit (KHO1091, CA, USA) according to the manufacturer’s procedures. ROBONIK P2000 ELISA reader was used at 450 nm, and the standard curve was obtained by plotting the mean absorbance of each standard concentration against human caspase-3 concentrations."}, "HepG2 cells [4]": {"tested_on": "HepG2 cells", "assay": "Flow cytometric cell cycle analysis", "type": "cell-based", "conditions": "HepG2, 48 h, at IC50", "experimental": "AKT-1 is known for its downstream activation of several proteins involved in cell proliferation and apoptosis evasion. In addition, it is reported to be involved in G1–S checkpoint transition and proliferation.\n(§3) Analyzing the DNA content in the cell cycle phases by flow cytometry was conducted using FACSCalibur (Becton Dickinson, Franklin Lakes, NJ, USA) following the manufacturer’s manual. The cell cycle analysis procedures were as reported by on HepG2 cells after their treatment with the most promising derivatives for 48 h. Further assessment of the proapoptotic effect was determined by the Annexin V-FITC/PI apoptosis detection kit (Catalog # K101-25, BD Biosciences, San Diego, CA, USA)."}, "HepG2 cells [5]": {"tested_on": "HepG2 cells", "assay": "Annexin V-FITC/PI apoptosis detection", "type": "cell-based", "conditions": "HepG2, 48 h", "experimental": "Annexin V/PI staining with flow cytometric analysis was adapted to measure early and late apoptotic cells and necrotic cells as presented in Table 3 and Figure 6.\nas §3"}, "HepG2 cells [6]": {"tested_on": "HepG2 cells", "assay": "MTT antiproliferative assay on HepG2", "type": "cell-based", "conditions": "mean ± S.D. (n = 3), read-out: Cytotoxicity in IC50, HepG2", "experimental": "as §1, §2"}, "VEGFR-2 [7]": {"molecular_target": "T1, VEGFR-2", "assay": "VEGFR-2 phosphorylation cell-based ELISA in HepG2 cells", "conditions": "compounds at their formerly determined IC50", "quoted_text": "VEGFR-2 phosphorylation was assayed using VEGFR2 Antibody (Phospho-Tyr951) (OAEC00085, AVIVA SYSTEM BIOLOGY) [53], while Akt-1 was assayed by Mouse/Human/Rat Phospho-AKT1 (Ser473) (Cell-Based Phosphorylation ELISA) ELISA Kit-LS-F1447 (LSBio) according to manufacturer’s instructions [54]."}, "WI38 cells": {"tested_on": "WI38 cells", "assay": "MTT assay on normal nononcogenic cell line WI38", "type": "cell-based", "conditions": "calculated by dividing the IC50 of WI38/PC-3; SI > 2 is considered safe", "experimental": "(§4) The aforementioned results illustrate that compounds 3b and 4c are the most promising cytotoxic agents on both cell lines and will be subjected to a thorough mechanistic study to understand their anticancer activity. However, before doing this, their selective toxicity and, thus, their safety were evaluated by measuring the IC50 values against the normal nononcogenic cell line (Wl38) by an MTT assay as listed in Table 1. […] Compound 3b gave SI of 6, and compound 4c gave SI = 12 showing better selectivity toward cancer cells than doxorubicin with SI = 5.\nas §2"}, "[8]": {"assay": "MTT assay on normal nononcogenic cell line WI38", "type": "cell-based", "conditions": "human, WI38 cells (normal nononcogenic cell line); MTT assay; noncancerous cell line; mean ± S.D. (n = 3); read-out: Cytotoxicity in IC50, WI38", "experimental": "as §4, §2"}, "lung, ovarian, CNS cells": {"tested_on": "lung, ovarian, CNS cells", "set-up": "method as in PMID 28759878", "conditions": "read-out: IC50 range in lung, ovarian, CNS cells; cited from earlier work"}, "FAK": {"tested_on": "FAK", "set-up": "method as in PMID 20050669, PMID 31923858", "conditions": "cited from earlier work"}, "PC3 cells": {"tested_on": "PC3 cells", "set-up": "method as in PMID 33328104", "conditions": "cited from earlier work"}, "HUVEC cells": {"tested_on": "HUVEC cells", "set-up": "method as in PMID 33328104", "conditions": "cited from earlier work"}}, "note": "Where “and” joins values, the source holds several entries; their conditions need not be identical. Equal values may be shown once. Read-outs that look alike come from different tables or passages of the source.", "data": [{"compound": "CN1CCc2sc3nc(-c4ccc(Cl)cc4)[nH]c(=O)c3c21", "note": "[3b, 2-(4-Chlorophenyl)-5-methyl-3,5,6,7-tetrahydro-4H-pyrrolo[2′,3′:4,5]thieno[2,3-d]pyrimidin-4-one]", "values": [{"measurement": "IC50", "setting": "VEGFR-2 [1]", "result": 126, "unit": "nM"}, {"measurement": "IC50", "setting": "PC-3 cells", "result": "2150 ± 120", "unit": "nM"}, {"measurement": "IC50", "setting": "AKT-1 [2]", "result": 6960, "unit": "nM"}, {"measurement": "AKT-1 phosphorylation inhibition rate", "setting": "AKT-1 [3]", "result": 63, "unit": "%"}, {"measurement": "Increase in active caspase-3 level over the untreated cells", "setting": "caspase-3", "result": "five-fold"}, {"measurement": "% Content of DNA, G0:G1", "setting": "HepG2 cells [4]", "result": 39.42, "unit": "%"}, {"measurement": "% Content of DNA, G2:M", "setting": "HepG2 cells [4]", "result": 4.39, "unit": "%"}, {"measurement": "% Content of DNA, PreG1", "setting": "HepG2 cells [4]", "result": 42.06, "unit": "%"}, {"measurement": "% Content of DNA, S", "setting": "HepG2 cells [4]", "result": 56.19, "unit": "%"}, {"measurement": "Cell cycle comment (phase of arrest)", "setting": "HepG2 cells [4]", "result": "cell growth arrest@ S"}, {"measurement": "melting point", "result": 168, "unit": "°C"}, {"measurement": "Increase in early apoptotic cells over untreated cells", "setting": "HepG2 cells [5]", "result": 5, "unit": "fold"}, {"measurement": "Increase in late apoptotic cells over untreated cells", "setting": "HepG2 cells [5]", "result": 144, "unit": "fold"}, {"measurement": "Apoptosis, Total (cells percentage)", "setting": "HepG2 cells [5]; at IC50", "result": 42.06, "unit": "%"}, {"measurement": "Apoptosis, Early (cells percentage)", "setting": "HepG2 cells [5]; at IC50, Q2 in Figure 6", "result": 2.51, "unit": "%"}, {"measurement": "Apoptosis, Late (cells percentage)", "setting": "HepG2 cells [5]; at IC50, Q3 in Figure 6", "result": 24.53, "unit": "%"}, {"measurement": "Necrosis (cells percentage)", "setting": "HepG2 cells [5]; at IC50, Q4 in Figure 6", "result": 15.02, "unit": "%"}, {"measurement": "IC50", "setting": "HepG2 cells [6]; Homo sapiens, HepG2, MTT assay", "result": 3100, "unit": "nM"}, {"measurement": "IC50", "setting": "HepG2 cells [6]; MTT assay", "result": "3110 ± 140", "unit": "nM"}, {"measurement": "VEGFR-2 phosphorylation inhibition", "setting": "VEGFR-2 [7]", "result": 58.3, "unit": "%"}, {"measurement": "Selectivity Index (SI)", "setting": "WI38 cells", "result": "6 and 5.79"}, {"measurement": "IC50", "setting": "[8]", "result": "12500 ± 680", "unit": "nM"}]}, {"compound": "COc1ccc(-c2nc3sc4c(c3c(=O)[nH]2)CCCC4)cc1", "note": "[III]", "values": [{"measurement": "IC50", "setting": "lung, ovarian, CNS cells", "result": "600 to 1200", "unit": "nM"}]}, {"compound": "COc1ccccc1-c1csc2cnc(Nc3ccc(C(=O)NC4CCNCC4)c(F)c3)nc12", "note": "[II]", "values": [{"measurement": "IC50", "setting": "FAK", "result": 28.2, "unit": "nM"}]}, {"compound": "O=C(Nc1ccc(Cl)c(Cl)c1)Nc1nnc(Sc2ncnc3scc(-c4ccncc4)c23)s1", "note": "[V]", "values": [{"measurement": "Pro-apoptotic effect in PC3 cells", "setting": "PC3 cells", "result": 44, "unit": "%"}, {"measurement": "Pro-apoptotic effect in HUVEC cells", "setting": "HUVEC cells", "result": 28.45, "unit": "%"}]}]}
